Measured values as given in ChEMBL document CHEMBL4346729, “The discovery of novel 3-aryl-indazole derivatives as peripherally restricted pan-Trk inhibitors for the treatment of pain” (Bioorg Med Chem Lett, 2019).
Converted amounts (≈) assume the structure as drawn. The source made the active and inactive calls. No cut-off for these calls is given here.

What was measured:
[1] = Apparent permeability from apical to basolateral side in MDCK cells at 50 umol/L at pH 7.4 incubated for 30 mins by LC-MS/MS analysis; format: ADME, cell-based, Canis lupus familiaris; conditions: dog
[2] = Intrinsic clearance in human liver microsomes; format: ADME, Microsome; conditions: read-out: CLH
[3] = Solubility of test compound; format: physicochemical
[4] = Apparent permeability from apical to basolateral side in MDCK cells at 50 umol/L at pH 6.5 incubated for 30 mins by LC-MS/MS analysis; format: ADME, cell-based, Canis lupus familiaris; conditions: dog
Rattus norvegicus = test: Antinociceptive activity in CFA induced thermal hypersensitivity Sprague-Dawley rat model assessed as increase in paw withdrawal latency at 100 mg/kg, po after 1 hr; format: functional, organism-based

| Structure (SMILES) | Papp A→B at 0.5 h, 50 µM [1] | CLint scaled [2] | solubility [3] | Papp A→B at 0.5 h, 50 µM [4] | Activity (Rattus norvegicus) |
| --- | --- | --- | --- | --- | --- |
| CS(=O)(=O)Nc1ccccc1CNc1ccc2[nH]nc(-c3ccc(OC4CCNCC4)nc3)c2c1 | 0.3 ×10⁻⁶ cm/s | 323 mL/min/kg | – | – | – |
| CC(C)(Nc1ccc2[nH]nc(-c3ccc(N4CCNCC4)nc3)c2c1)c1ccccc1 | 11 ×10⁻⁶ cm/s | 1740 mL/min/kg | – | – | – |
| CS(=O)(=O)c1ccc(F)cc1CNc1ccc2[nH]nc(-c3cccnc3)c2c1 | 61.5 ×10⁻⁶ cm/s | 793 mL/min/kg | 23 µM (≈ 9.12 µg/mL) | – | – |
| c1ccc(CCc2ccc3[nH]nc(-c4ccc(N5CCNCC5)nc4)c3c2)cc1 | 3.1 ×10⁻⁶ cm/s | 2730 mL/min/kg | – | – | – |
| c1ccc(CNc2ccc3[nH]nc(-c4ccc(N5CCNCC5)nc4)c3c2)cc1 | 13 ×10⁻⁶ cm/s | 12 mL/min/kg | – | – | – |
| CS(=O)(=O)Nc1ccccc1CNc1ccc2[nH]nc(-c3ccc(N4CCNCC4)nc3)c2c1 | 1.2 ×10⁻⁶ cm/s | 69.5 to 70 mL/min/kg | – | – | – |
| c1ccc(COc2ccc3[nH]nc(-c4ccc(N5CCNCC5)nc4)c3c2)cc1 | 9.6 ×10⁻⁶ cm/s | 694 mL/min/kg | – | – | – |
| COc1cccc(-c2n[nH]c3ccc(NCc4ccccc4NS(C)(=O)=O)cc23)n1 | – | 833 mL/min/kg | – | – | – |
| Cn1ccc(-c2n[nH]c3ccc(NCc4cc(F)ccc4S(C)(=O)=O)cc23)n1 | 34 ×10⁻⁶ cm/s | 137 mL/min/kg | 80.1 µM (≈ 32 µg/mL) | – | – |
| COc1ccc(-c2n[nH]c3ccc(NCc4ccccc4NS(C)(=O)=O)cc23)cn1 | – | 359 mL/min/kg | – | – | – |
| CS(=O)(=O)c1ccccc1CNc1ccc2[nH]nc(-c3ccc(N4CCNCC4)nc3)c2c1 | 12.5 ×10⁻⁶ cm/s | 74 mL/min/kg | – | 0.4 ×10⁻⁶ cm/s | – |
| CC(C)Cc1ccc(C(C)C(=O)O)cc1 (stereo unspecified) | – | – | – | – | Active |
| CS(=O)(=O)c1ccc(F)cc1CNc1ccc2[nH]nc(-c3ccc(N4CCNCC4)nc3)c2c1 | 0.3 to 0.4 ×10⁻⁶ cm/s | 176 to 178 mL/min/kg | 38.7 µM (≈ 18.6 µg/mL) | 0.3 ×10⁻⁶ cm/s | – |
| CS(=O)(=O)Nc1ccccc1CNc1ccc2[nH]nc(-c3ccc(NC4CCNCC4)nc3)c2c1 | 0.3 ×10⁻⁶ cm/s | 184 mL/min/kg | – | – | – |
| CN(Cc1ccccc1)c1ccc2[nH]nc(-c3ccc(N4CCNCC4)nc3)c2c1 | 7.3 ×10⁻⁶ cm/s | 417 mL/min/kg | – | – | – |
| CS(=O)(=O)c1ccc(F)cc1CNc1ccc2[nH]nc(-c3ccccn3)c2c1 | 73.2 ×10⁻⁶ cm/s | 443 mL/min/kg | 15.2 µM (≈ 6.03 µg/mL) | – | – |
| COc1cncc(-c2n[nH]c3ccc(NCc4ccccc4NS(C)(=O)=O)cc23)c1 | – | 217 mL/min/kg | – | – | – |
